Source: ChEMBL document CHEMBL4350974, “Synthesis and biological evaluation of methylpyrimidine-fused tricyclic diterpene analogs as novel oral anti-late-onset hypogonadism agents” (Eur J Med Chem, 2019)
Calls of active or inactive are those of the source. The rule behind the calls is not given here.

Tests used:
[1] = organism: Rattus norvegicus; experiment: Anti late-onset hypogonadism activity in cyclophosphamide-induced Sprague-Dawley rat model of partial androgen deficiency assessed as induction of autophagy in Leydig cells immunohistochemical analysis; assay type: functional, organism-based
[2] = Toxicity in cyclophosphamide - induced Sprague-Dawley rat model of partial androgen deficiency assessed as effect on spleen at 50 to 100 mg/kg by HE staining based histopathological analysis; assay type: organism-based; conditions: in vivo
[3] = Toxicity in cyclophosphamide - induced Sprague-Dawley rat model of partial androgen deficiency assessed as effect on liver at 50 to 100 mg/kg by HE staining based histopathological analysis; assay type: organism-based; conditions: in vivo
[4] = AUC (0 to infinity) in Sprague-Dawley rat plasma at 50 mg/kg, po by LC/MS analysis; assay type: ADME, organism-based; set-up: dose 50 mg/kg, route oral, time infinity
[5] = Mean residence time in Sprague-Dawley rat at 50 mg/kg, po by LC/MS analysis; assay type: ADME, organism-based; conditions: in vivo
[6] = Toxicity in cyclophosphamide - induced Sprague-Dawley rat model of partial androgen deficiency assessed as effect on Sertoli cells arrangement at 50 to 100 mg/kg by HE staining based histopathological analysis; assay type: organism-based; conditions: in vivo
[7] = Toxicity in cyclophosphamide - induced Sprague-Dawley rat model of partial androgen deficiency assessed as effect on heart at 50 to 100 mg/kg by HE staining based histopathological analysis; assay type: organism-based; conditions: in vivo
[8] = tested on: TM3; experiment: Induction of autophagy in mouse TM3 cells assessed as increase in LC3-II/LC3-I ratio at 10 to 100 uM after 24 hrs by Western blot analysis; assay type: functional, cell-based
[9] = tested on: TM3; experiment: Induction of testosterone production in mouse TM3 cells assessed as increase in StAR mRNA expression level after 24 hrs by qRT-PCR analysis; assay type: functional, cell-based
[10] = Clearance in Sprague-Dawley rat at 50 mg/kg, po up to 12 hrs by LC/MS analysis; assay type: ADME, organism-based; conditions: in vivo
[11] = Toxicity in cyclophosphamide - induced Sprague-Dawley rat model of partial androgen deficiency assessed as sperm motility at 50 mg/kg by semen analysis (reference value: 88.3 +/- 7.3 %); assay type: organism-based; conditions: in vivo
[12] = tested on: Rattus norvegicus; experiment: Effect on sperm production in cyclophosphamide - induced Sprague-Dawley rat model of partial androgen deficiency assessed as increase in SYCP3 protein expression at 50 to 100 mg/kg by immunohistochemical analysis; assay type: functional, organism-based
[13] = Oral bioavailability in Sprague-Dawley rat at 50 mg/kg by LC/MS analysis; assay type: ADME, organism-based; conditions: in vivo
[14] = tested on: Rattus norvegicus; experiment: Anti late-onset hypogonadism activity in cyclophosphamide-induced Sprague-Dawley rat model of partial androgen deficiency assessed as inhibition of Leydig cells apoptosis at 50 to 100 mg/kg, po qd administered for 4 weeks by DAPI staining based TUNEL assay; assay type: functional, organism-based
[15] = Toxicity in cyclophosphamide - induced Sprague-Dawley rat model of partial androgen deficiency assessed as sperm motility at 100 mg/kg by semen analysis (reference value: 88.3 +/- 7.3 %); assay type: organism-based; conditions: in vivo
[16] = tested on: Rattus norvegicus; experiment: Anti late-onset hypogonadism activity in cyclophosphamide-induced Sprague-Dawley rat model of partial androgen deficiency assessed as intratesticular testosterone level at 50 mg/kg, po qd administered for 4 weeks by ELISA (reference value: 137.99 +/- 19.27 nmol/L); assay type: functional
[17] = tested on: Rattus norvegicus; experiment: Anti late-onset hypogonadism activity in cyclophosphamide-induced Sprague-Dawley rat model of partial androgen deficiency assessed as increase in free testosterone level at 50 to 100 mg/kg, po qd administered for 4 weeks and measured every 2 weeks by ELISA; assay type: functional, organism-based
[18] = Volume of distribution in Sprague-Dawley rat plasma at 50 mg/kg, po up to 12 hrs by LC/MS analysis; assay type: ADME, organism-based; conditions: in vivo
[19] = organism: Rattus norvegicus; experiment: Anti late-onset hypogonadism activity in cyclophosphamide-induced Sprague-Dawley rat model of partial androgen deficiency assessed as prevention of testicular atrophy; assay type: functional, organism-based
[20] = Cytotoxicity against mouse TM3 cells assessed as reduction in cell viability measured after 24 hrs by sulforhodamine B assay; assay type: cell-based
[21] = Volume of distribution in Sprague-Dawley rat plasma at 5 mg/kg, iv up to 5 hrs by LC/MS analysis; assay type: ADME, organism-based
[22] = tested on: TM3; experiment: Induction of autophagy in mouse TM3 cells assessed as dephosphorylation of mTOR at 10 to 100 uM by Western blot analysis; assay type: functional, cell-based
[23] = Toxicity in cyclophosphamide - induced Sprague-Dawley rat model of partial androgen deficiency assessed as sperm viability at 50 mg/kg by semen analysis (reference value: 95.1 +/- 3.2 %); assay type: organism-based; conditions: in vivo
[24] = tested on: Rattus norvegicus; experiment: Anti late-onset hypogonadism activity in cyclophosphamide-induced Sprague-Dawley rat model of partial androgen deficiency assessed as increase in LC3 expression at 50 to 100 mg/kg by immunohistochemical analysis; assay type: functional, organism-based
[25] = tested on: Rattus norvegicus; experiment: Anti late-onset hypogonadism activity in cyclophosphamide-induced Sprague-Dawley rat model of partial androgen deficiency assessed as weight of seminal vesicles at 100 mg/kg, po qd administered for 4 weeks (reference value: 1.33 +/- 0.26 g); assay type: functional
[26] = tested on: Rattus norvegicus; experiment: Anti late-onset hypogonadism activity in cyclophosphamide-induced Sprague-Dawley rat model of partial androgen deficiency assessed as increase in StAR mRNA level at 50 to 100 mg/kg by RT-PCR analysis; assay type: functional, organism-based
[27] = tested on: TM3; experiment: Induction of autophagy in mouse TM3 cells assessed as phosphorylation of AMPK at 10 to 100 uM by Western blot analysis; assay type: functional, cell-based
[28] = tested on: Rattus norvegicus; experiment: Anti late-onset hypogonadism activity in cyclophosphamide-induced Sprague-Dawley rat model of partial androgen deficiency assessed as intratesticular testosterone level at 100 mg/kg, po qd administered for 4 weeks by ELISA (reference value: 137.99 +/- 19.27 nmol/L); assay type: functional
[29] = AUC (0 to infinity) in Sprague-Dawley rat plasma at 5 mg/kg, iv by LC/MS analysis; assay type: ADME, organism-based; set-up: dose 5 mg/kg, route intravenous, time infinity
[30] = Cmax in Sprague-Dawley rat plasma at 50 mg/kg, po up to 12 hrs by LC/MS analysis; assay type: ADME, organism-based; set-up: dose 50 mg/kg, route oral
[31] = tested on: Rattus norvegicus; experiment: Anti late-onset hypogonadism activity in cyclophosphamide-induced Sprague-Dawley rat model of partial androgen deficiency assessed as increase in serum total testosterone level at 50 to 100 mg/kg, po qd administered for 4 weeks and measured every 2 weeks by ELISA; assay type: functional, organism-based
[32] = tested on: TM3; experiment: Induction of autophagy in mouse TM3 cells assessed as increase in LC3-II protein level at 10 to 100 uM by Western blot analysis; assay type: functional, cell-based
[33] = AUC (0 to t) in Sprague-Dawley rat plasma at 5 mg/kg, iv up to 5 hrs by LC/MS analysis; assay type: ADME, organism-based; set-up: time < 5 hr, dose 5 mg/kg, route intravenous
[34] = tested on: Rattus norvegicus; experiment: Anti late-onset hypogonadism activity in cyclophosphamide-induced Sprague-Dawley rat model of partial androgen deficiency assessed as weight of seminal vesicles at 50 mg/kg, po qd administered for 4 weeks (reference value: 1.33 +/- 0.26 g); assay type: functional
[35] = tested on: Rattus norvegicus; experiment: Anti late-onset hypogonadism activity in cyclophosphamide-induced Sprague-Dawley rat model of partial androgen deficiency assessed as increase in 3 beta- HSD mRNA level at 100 mg/kg by RT-PCR analysis; assay type: functional, organism-based
[36] = Half-life in Sprague-Dawley rat plasma at 50 mg/kg, po up to 12 hrs by LC/MS analysis; assay type: ADME, organism-based
[37] = Cytotoxicity against mouse NIH/3T3 cells assessed as reduction in cell viability measured after 24 hrs by sulforhodamine B assay; assay type: cell-based, NIH3T3

For `CNC(=O)c1cc2c(cc1OC)[C@@]1(C)Cc3cnc(C)nc3C(C)(C)C1CC2` (mixture of isomers), the Activity [1] was “Active”, the Activity [2] was “Non-Toxic” and the Activity [3] was “Non-Toxic”. For the same compound, the AUC(0-inf) [4] was 3140 ng·h/mL, the MRT [5] was 7.76 h and the Activity [6] was “Toxic”. The Activity [7] was “Non-Toxic”, the Activity [8] was “Active” and the Activity [9] was “Dose-dependent effect”. The CL/F [10] was 270 mL/min/kg, the Activity [11] was 92.6% and the Activity [12] was “Active”. The bioavailability [13] was 57%, the inhibition [14] was “Active” and the Activity [15] was 94.6%. The Activity [16] was 180.24 nmol/L, the Activity [17] was “Active” and the Vd [18] was 106.27 L/kg. For the same compound, the Activity [19] was “Active”, the CC50 at 24 h [20] was over 200 µM and the Vd [21] was 103 L/kg. The Activity [22] was “Active”, the Activity [23] was 96.5% and the Activity [24] was “Active”. For the same compound, the Activity [25] was 1.68 g, the Activity [26] was “Active” and the Activity [27] was “Active”. For the same compound, the Activity [28] was 185.58 nmol/L, the AUC(0-inf) [29] was 551 ng·h/mL and the Cmax [30] was 239 ng/mL. The Activity [31] was “Active”, the Activity [32] was “Active” and the AUC(0-t) at 5 h [33] was 453 ng·h/mL. For the same compound, the Activity [34] was 1.53 g, the Activity [35] was “Active” and the half-life [36] was 4.44 h. It also gave a CC50 at 24 h [37] of over 200 µM.
